Common to all, as to assay: drug sensitivity score (DSS) (DSS score); higher = more sensitive (stronger growth inhibition); extreme values may be limits of the assay
The subject of test [1] is Ba/F3 P210-BCR-ABL1 RUNX1-/- (mouse). The method in brief: (§1)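 Each value is a drug sensitivity score derived from CellTiter-Glo luminescence scaled between vehicle and positive-control wells. Mouse Ba/F3 clones, CRISPR/Cas9-edited at a target exon or edited controls, were seeded at 10,000 cells per well in RPMI with 10% FBS and treated for 72 h at 37 °C and 5% CO2. Compounds from a 528-compound library were tested at five concentrations over a 10,000-fold range, and scores were averaged over two replicates.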

Test [2] concerns Ba/F3 P210-BCR-ABL1 RUNX1-/mut (mouse). The method, boiled down: as §1
Test [3] has as its system Ba/F3 P210-BCR-ABL1 RUNX1wt/wt control (mouse). The method, boiled down: as §1

± gives the standard deviation of the averaged measurements.

Consider `Cn1c(=O)n(-c2ccc(C(C)(C)C#N)cc2)c2c3cc(-c4cnc5ccccc5c4)ccc3ncc21` [Dactolisib], for which the drug sensitivity score in test [1] amounted to 16.9 ± 0.42; in test [2], 18.3 ± 0.28; in test [3], 14.4 ± 0.35.
For `O=C(/C=C/c1cccnc1)NCCCCC1CCN(C(=O)c2ccccc2)CC1` [Daporinad], in that order: 19.4 ± 0.35, 20.5 ± 4.7 and 15.9 ± 0.71.
The matching figures for `CCN(CC)CCN(Cc1ccc(-c2ccc(C(F)(F)F)cc2)cc1)C(=O)Cn1c(SCc2ccc(F)cc2)nc(=O)c2c1CCC2` [Darapladib]: 1.9 ± 0.14, 2.65 ± 3.2 and 0.
The matching figures for `CC[C@@](C)(Nc1ccnc(-c2c[nH]c3ncccc23)n1)C(=O)NCC(F)(F)F` [Decernotinib]: 0.5 ± 0.28, 0 and 0.55 ± 0.21.
`CC(=O)N(O)CCCCCNC(=O)CCC(=O)N(O)CCCCCNC(=O)CCC(=O)N(O)CCCCCN` [Deferoxamine]: the drug sensitivity score in test [1] was 6.9 ± 0.71; in test [2], 6.6 ± 1.4; in test [3], 0.9 ± 0.99.
For `C[C@H]1O[C@@H](O[C@H]2[C@@H](O)C[C@H](O[C@H]3[C@@H](O)C[C@H](O[C@H]4CC[C@@]5(C)[C@H](CC[C@@H]6[C@@H]5C[C@@H](O)[C@]5(C)[C@@H](C7=CC(=O)OC7)CC[C@]65O)C4)O[C@@H]3C)O[C@@H]2C)C[C@H](O)[C@@H]1O` [Digoxin], the drug sensitivity score in test [1] was 0; in test [2], 0.05 ± 0.071; in test [3], 0.
With `CCc1cnn2c(NCc3ccc[n+]([O-])c3)cc(N3CCCC[C@H]3CCO)nc12` [Dinaciclib], the drug sensitivity score in test [1] was 19.6 ± 2.3; in test [2], 19.9 ± 0.35; in test [3] it was 18.6 ± 0.78.
The matching figures for `Cc1ccc(-n2nc(C(C)(C)C)cc2NC(=O)Nc2ccc(OCCN3CCOCC3)c3ccccc23)cc1` [Doramapimod]: 3.9 ± 0.57, 2.85 ± 1.5 and 0.
As to `C[C@H](Nc1ncnc2nc[nH]c12)c1cc2cccc(Cl)c2c(=O)n1-c1ccccc1` [Duvelisib], the drug sensitivity score is 2.6 ± 0.99 in test [1], 2.35 ± 3.3 in test [2] and 0 in test [3].
For `Cc1ccc(NS(=O)(=O)c2cccc(C#N)c2)c2[nH]cc(C#N)c12` [E7820], in that order: 2 ± 0.99, 5.45 ± 2 and 0.35 ± 0.21.
As for `Cc1cc(Nc2cc(N3CCN(C)CC3)nc(/C=C/c3ccccc3)n2)n[nH]1` [ENMD-2076], the drug sensitivity score in test [1] was 9.4 ± 0.28; in test [2], 8.45 ± 0.35; in test [3], 5.5 ± 0.85.
The matching figures for `Cc1cc(C)c(CNC(=O)c2cc(-c3ccc(CN4CCOCC4)cc3)cc3c2cnn3C2CCCC2)c(=O)[nH]1` [EPZ-5687]: 0.5 ± 0.71, 0.9 ± 1.3 and 0.
On to `NC(=O)/C(=C/n1cnc(-c2cc(C(F)(F)F)cc(C(F)(F)F)c2)n1)c1cncnc1` [Eltanexor], for which the drug sensitivity score in test [1] came to 27.8 ± 0.14; in test [2], 27.2 ± 0.35; in test [3], 19.8 ± 0.99.
For `CC(C)(O)CNc1nc(Nc2ccnc(C(F)(F)F)c2)nc(-c2cccc(C(F)(F)F)n2)n1` [Enasidenib], in that order: 0.4 ± 0.14, 0.55 ± 0.78 and 0.
As for `COC(=O)N[C@@H](C)CNc1nccc(-c2cn(C(C)C)nc2-c2cc(Cl)cc(NS(C)(=O)=O)c2F)n1` [Encorafenib], the drug sensitivity score in test [1] stood at 1.35 ± 0.071; in test [2], 2.15 ± 0.64; in test [3] it was 0.05 ± 0.071.
The matching figures for `C[C@@H]1CN(C(=O)c2ccc(NC(=O)c3cc(O[C@H](C)c4c(Cl)ccc(F)c4Cl)c(N)nn3)cc2)C[C@H](C)N1` [Ensartinib]: 2.15 ± 0.92, 0.2 ± 0.28 and 0.
`c1cn2cc(-c3ccc4cn[nH]c4c3)nc(Nc3ccc(N4CCOCC4)cc3)c2n1` [Entospletinib]: the drug sensitivity score in test [1] turned out to be 1.95 ± 1.3; in test [2] it was 1.35 ± 1.9; in test [3], 0.
With `CN1CCN(c2ccc(C(=O)Nc3n[nH]c4ccc(Cc5cc(F)cc(F)c5)cc34)c(NC3CCOCC3)c2)CC1` [Entrectinib], the drug sensitivity score in test [1] was 0.25 ± 0.35; in test [2], 0.65 ± 0.92; in test [3], 0.
On to `CNC(=O)c1ccc(N2C(=S)N(c3ccc(C#N)c(C(F)(F)F)c3)C(=O)C2(C)C)cc1F` [Enzalutamide], for which the drug sensitivity score in test [1] was found to be 1.15 ± 1.6; in test [2], 1.05 ± 1.5; in test [3], 0.3 ± 0.14.
For `NS(=O)(=O)NCCNc1nonc1/C(=N/O)Nc1ccc(F)c(Br)c1` [Epacadostat], in that order: 1.05 ± 1.2, 0.7 ± 0.99 and 0.
The matching figures for `COc1cccc2c1C(=O)c1c(O)c3c(c(O)c1C2=O)C[C@@](O)(C(=O)CO)C[C@@H]3O[C@H]1C[C@H](N)[C@@H](O)[C@H](C)O1` [Epirubicin]: 24.9 ± 0.35, 18.6 ± 3.5 and 13.1 ± 0.21.
For `CCOc1ccccc1-n1c(C(C)N2CCN(C(=O)COc3ccc(Cl)cc3)CC2)nc2ccccc2c1=O` (stereo unspecified) [Erastin], the drug sensitivity score in test [1] is 11.2 ± 1.1; in test [2] it was 8.45 ± 5.9; in test [3] it was 0.
Regarding `COc1cc(OC)cc(N(CCNC(C)C)c2ccc3ncc(-c4cnn(C)c4)nc3c2)c1` [Erdafitinib], the values for the drug sensitivity score in test [1], in test [2] and in test [3] were 1.5 ± 0.14, 0 and 0, respectively.
Consider `C=C1C[C@@H]2CC[C@@]34C[C@H]5O[C@H]6[C@@H](O3)[C@H]3O[C@H](CC[C@@H]3O[C@H]6[C@H]5O4)CC(=O)C[C@@H]3[C@@H](OC)[C@@H](C[C@H](O)CN)O[C@H]3C[C@H]3O[C@@H](CC[C@@H]1O2)C[C@@H](C)C3=C` [Eribulin], for which the drug sensitivity score in test [1] came out at 25.9 ± 1.2; in test [2] it was 24.6 ± 0.85; in test [3], 17.4 ± 0.14.
The matching figures for `CCn1c(=O)c(-c2ccc(Cl)cc2Cl)cc2cnc(Nc3ccc(N4CCNCC4)c(F)c3)nc21` [FRAX486]: 23.2 ± 1.2, 16.4 ± 0.42 and 8.95 ± 0.64.
The matching figures for `Cc1cnc(Nc2ccc(OCCN3CCCC3)cc2)nc1Nc1cccc(S(=O)(=O)NC(C)(C)C)c1` [Fedratinib]: 11.7 ± 2, 10.4 ± 2.7 and 5.8.
As for `CON(C)C(=O)N1N=C(c2cc(F)ccc2F)S[C@@]1(CCCN)c1ccccc1` [Filanesib], the results for the drug sensitivity score in test [1], in test [2] and in test [3] were 19.6 ± 2.2, 14.95 ± 0.071 and 7.85 ± 0.35, respectively.
Consider `O=C(Nc1nc2cccc(-c3ccc(CN4CCS(=O)(=O)CC4)cc3)n2n1)C1CC1` [Filgotinib], for which the drug sensitivity score in test [1] was determined as 1.5 ± 1.7; in test [2], 1.8 ± 2.5; in test [3] it was 0.
The matching figures for `COc1cc(Nc2ncc(F)c(Nc3ccc4c(n3)N(COP(=O)(O)O)C(=O)C(C)(C)O4)n2)cc(OC)c1OC` [Fostamatinib]: 1.4 ± 0.14, 0.45 ± 0.64 and 0.45 ± 0.49.
For `CC1(C)OCCn2c1nc1c(N3CCOCC3)nc(-c3cnc(N)nc3)nc12` [GDC-0084], in that order: 9.3 ± 0.14, 10.3 ± 0.85 and 4.8.
For `O=C(NOCCO)c1ccc2cncn2c1Nc1ccc(I)cc1F` [GDC-0623], in that order: 10.8 ± 8.1, 3.7 ± 3.7 and 0.55 ± 0.78.
On to `C[C@H]1CN(C2COC2)CCN1c1ccc(Nc2cc(-c3ccnc(N4CCn5c(cc6c5CC(C)(C)C6)C4=O)c3CO)cn(C)c2=O)nc1` [GDC-0853], for which the drug sensitivity score in test [1], in test [2] and in test [3] was 0 in each case.
As to `O[C@H](C[C@H]1c2c(F)cccc2-c2cncn21)[C@H]1CC[C@H](O)CC1` [GDC-0919], the drug sensitivity score in test [1] was found to be 0; in test [2] it was 0.05 ± 0.071; in test [3], 1.2 ± 0.28.
Consider `CNc1nc(Nc2cn(C(C)(C)C#N)nc2C)ncc1C(F)(F)F` [GNE-0877], for which the drug sensitivity score in test [1], in test [2] and in test [3] was 0 in each case.
For `CCNc1nc(Nc2cc(F)c(C(=O)N3CCOCC3)cc2OC)ncc1C(F)(F)F` [GNE-7915], the drug sensitivity score in test [1], in test [2] and in test [3] was 0 each time.
Consider `CCCc1cc(C)[nH]c(=O)c1CNC(=O)c1cc(-c2ccnc(N3CCN(C)CC3)c2)cc2c1cnn2C(C)C` [GSK343], for which the drug sensitivity score in test [1] was 0.75 ± 0.78; in test [2], 1.05 ± 1.5; in test [3], 0.
The matching figures for `CCCOc1ccn2c(C(C)=O)cc(-c3ccccc3S(C)(=O)=O)c2c1` [GSK2801]: 0.1 ± 0.14, 2.3 ± 3.2 and 0.
